# Data: PubChem BioAssay (NCI)
# “And” between values parts separate entries of the source, which are not always exact repeats. Identical values can stand only once.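 Method: 48-hour compound exposure of cells in 96-well plates, five concentrations, linear interpolation of endpoints. At the GI50, growth is halved. The concentration for full growth arrest is given as TGI.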
# Columns and labels:
# Experiment in all cases: DTP human tumour cell line panel, 48 h
# NCI-H23 lung = system: NCI-H23 lung
# HOP-92 NSCLC = system: HOP-92 NSCLC
# UACC-257 melanoma = system: UACC-257 melanoma
# A549 NSCLC = system: A549 NSCLC
# HL-60(TB) leukemia = system: HL-60(TB) leukemia
# UO-31 renal = system: UO-31 renal
# NCI/ADR-RES ovarian = system: NCI/ADR-RES ovarian
# COLO 205 colon = system: COLO 205 colon
# ACHN renal = system: ACHN renal
# SF-539 CNS = system: SF-539 CNS
# KM12 colon = system: KM12 colon
# SK-OV-3 ovarian = system: SK-OV-3 ovarian
# HCC-2998 colon = system: HCC-2998 colon
# MALME-3M melanoma = system: MALME-3M melanoma
# SF-295 CNS = system: SF-295 CNS
# PC-3 prostate = system: PC-3 prostate
# EKVX NSCLC = system: EKVX NSCLC
# IGROV1 ovarian = system: IGROV1 ovarian
# RXF 393 renal = system: RXF 393 renal
# HOP-62 NSCLC = system: HOP-62 NSCLC
# MDA-N = system: MDA-N
# NCI-H522 lung = system: NCI-H522 lung
# TK-10 renal = system: TK-10 renal
# LOX IMVI melanoma = system: LOX IMVI melanoma
# HT29 colon = system: HT29 colon
# HS 578T breast = system: HS 578T breast
# CAKI-1 renal = system: CAKI-1 renal
# OVCAR-5 ovarian = system: OVCAR-5 ovarian
# OVCAR-3 ovarian = system: OVCAR-3 ovarian
# K-562 leukemia = system: K-562 leukemia
# SN12C renal = system: SN12C renal
# MDA-MB-435 = system: MDA-MB-435
# SK-MEL-2 melanoma = system: SK-MEL-2 melanoma
# U251 CNS = system: U251 CNS
# NCI-H226 lung = system: NCI-H226 lung
# 786-0 renal = system: 786-0 renal
# HCT-116 colon = system: HCT-116 colon
# OVCAR-4 ovarian = system: OVCAR-4 ovarian
# MOLT-4 leukemia = system: MOLT-4 leukemia
# SF-268 CNS = system: SF-268 CNS
# OVCAR-8 ovarian = system: OVCAR-8 ovarian
# DU-145 prostate = system: DU-145 prostate
# T-47D breast = system: T-47D breast
# NCI-H460 lung = system: NCI-H460 lung
# M14 melanoma = system: M14 melanoma
# MDA-MB-231 breast = system: MDA-MB-231 breast
# A498 renal = system: A498 renal
# SW-620 colon = system: SW-620 colon
# SK-MEL-28 melanoma = system: SK-MEL-28 melanoma
# CCRF-CEM leukemia = system: CCRF-CEM leukemia
# RPMI-8226 leukemia = system: RPMI-8226 leukemia
# HCT-15 colon = system: HCT-15 colon
# SK-MEL-5 melanoma = system: SK-MEL-5 melanoma
# SNB-19 CNS = system: SNB-19 CNS
# SR leukemia = system: SR leukemia
# UACC-62 melanoma = system: UACC-62 melanoma
# SNB-75 CNS = system: SNB-75 CNS
# MCF7 breast = system: MCF7 breast
structure (smiles),measurement,setting,value
COC(=O)[C@@H]1CN(C(=O)CCc2ccccc2)C(=O)N1,TGI,NCI-H23 lung,> 100 µM
same,TGI,HOP-92 NSCLC,> 100 µM
same,TGI,UACC-257 melanoma,> 100 µM
same,TGI,A549 NSCLC,> 100 µM
same,TGI,HL-60(TB) leukemia,> 100 µM
same,TGI,UO-31 renal,> 100 µM
same,TGI,NCI/ADR-RES ovarian,> 100 µM
same,TGI,COLO 205 colon,> 100 µM
same,TGI,ACHN renal,> 100 µM
same,TGI,SF-539 CNS,> 100 µM
same,TGI,KM12 colon,> 100 µM
same,TGI,SK-OV-3 ovarian,> 100 µM
same,TGI,HCC-2998 colon,> 100 µM
same,TGI,MALME-3M melanoma,> 100 µM
same,TGI,SF-295 CNS,> 100 µM
same,TGI,PC-3 prostate,> 100 µM
same,TGI,EKVX NSCLC,> 100 µM
same,TGI,IGROV1 ovarian,> 100 µM
same,TGI,RXF 393 renal,> 100 µM
same,TGI,HOP-62 NSCLC,> 100 µM
same,TGI,MDA-N,> 100 µM
same,TGI,NCI-H522 lung,> 100 µM
same,TGI,TK-10 renal,> 100 µM
same,TGI,LOX IMVI melanoma,> 100 µM
same,TGI,HT29 colon,> 100 µM
same,TGI,HS 578T breast,> 100 µM
same,TGI,CAKI-1 renal,> 100 µM
same,TGI,OVCAR-5 ovarian,> 100 µM
same,TGI,OVCAR-3 ovarian,> 100 µM
same,TGI,K-562 leukemia,> 100 µM
same,TGI,SN12C renal,> 100 µM
same,TGI,MDA-MB-435,> 100 µM
same,TGI,SK-MEL-2 melanoma,> 100 µM
same,TGI,U251 CNS,> 100 µM
same,TGI,NCI-H226 lung,> 100 µM
same,TGI,786-0 renal,> 100 µM
same,TGI,HCT-116 colon,> 100 µM
same,TGI,OVCAR-4 ovarian,> 100 µM
same,TGI,MOLT-4 leukemia,> 100 µM
same,TGI,SF-268 CNS,> 100 µM
same,TGI,OVCAR-8 ovarian,> 100 µM
same,TGI,DU-145 prostate,> 100 µM
same,TGI,T-47D breast,> 100 µM
same,TGI,NCI-H460 lung,> 100 µM
same,TGI,M14 melanoma,> 100 µM
same,TGI,MDA-MB-231 breast,> 100 µM
same,TGI,A498 renal,> 100 µM
same,TGI,SW-620 colon,> 100 µM
same,TGI,SK-MEL-28 melanoma,> 100 µM
same,TGI,CCRF-CEM leukemia,> 100 µM
same,TGI,RPMI-8226 leukemia,> 100 µM
same,TGI,HCT-15 colon,> 100 µM
same,TGI,SK-MEL-5 melanoma,> 100 µM
same,TGI,SNB-19 CNS,> 100 µM
same,TGI,SR leukemia,> 100 µM
CC(=O)OCC1OC(n2c(C)c(C(C)=O)c(-c3ccco3)c(C#N)c2=S)C(OC(C)=O)C(OC(C)=O)C1OC(C)=O (stereo not drawn),TGI,NCI-H23 lung,> 100 µM
same,TGI,UACC-62 melanoma,> 100 µM
same,TGI,HOP-92 NSCLC,87.5 µM
same,TGI,UACC-257 melanoma,> 100 µM
same,TGI,A549 NSCLC,> 100 µM
same,TGI,HL-60(TB) leukemia,> 100 µM
same,TGI,NCI/ADR-RES ovarian,> 100 µM
same,TGI,COLO 205 colon,> 100 µM
same,TGI,ACHN renal,> 100 µM
same,TGI,SF-539 CNS,> 100 µM
same,TGI,KM12 colon,> 100 µM
same,TGI,SK-OV-3 ovarian,> 100 µM
same,TGI,HCC-2998 colon,> 100 µM
same,TGI,MALME-3M melanoma,> 100 µM
same,TGI,SF-295 CNS,> 100 µM
same,TGI,PC-3 prostate,> 100 µM
same,TGI,EKVX NSCLC,> 100 µM
same,GI50,IGROV1 ovarian,> 100 µM and 43.6 µM
same,TGI,IGROV1 ovarian,> 100 µM
same,TGI,RXF 393 renal,> 100 µM
same,TGI,HOP-62 NSCLC,> 100 µM
same,TGI,MDA-N,> 100 µM
same,TGI,NCI-H522 lung,> 100 µM
same,TGI,TK-10 renal,> 100 µM
same,TGI,LOX IMVI melanoma,> 100 µM
same,TGI,HT29 colon,> 100 µM
same,TGI,OVCAR-5 ovarian,> 100 µM
same,TGI,OVCAR-3 ovarian,> 100 µM
same,TGI,K-562 leukemia,> 100 µM
same,GI50,SNB-75 CNS,0.171 µM
same,TGI,SNB-75 CNS,82.1 µM
same,TGI,SN12C renal,> 100 µM
same,TGI,MDA-MB-435,> 100 µM
same,GI50,SK-MEL-2 melanoma,27.4 µM and 74.4 µM
same,TGI,SK-MEL-2 melanoma,98.4 µM and > 100 µM
same,TGI,U251 CNS,> 100 µM
same,TGI,NCI-H226 lung,> 100 µM
same,TGI,786-0 renal,> 100 µM
same,TGI,HCT-116 colon,> 100 µM
same,GI50,OVCAR-4 ovarian,> 100 µM and 37.8 µM
same,TGI,OVCAR-4 ovarian,> 100 µM
same,TGI,MOLT-4 leukemia,> 100 µM
same,TGI,SF-268 CNS,> 100 µM
same,TGI,OVCAR-8 ovarian,> 100 µM
same,TGI,DU-145 prostate,> 100 µM
same,TGI,T-47D breast,> 100 µM
same,TGI,NCI-H460 lung,> 100 µM
same,TGI,M14 melanoma,> 100 µM
same,TGI,MDA-MB-231 breast,> 100 µM
same,TGI,A498 renal,> 100 µM
same,TGI,SW-620 colon,> 100 µM
same,TGI,MCF7 breast,> 100 µM
same,TGI,SK-MEL-28 melanoma,> 100 µM
same,TGI,CCRF-CEM leukemia,> 100 µM
same,TGI,HCT-15 colon,> 100 µM
same,TGI,SK-MEL-5 melanoma,> 100 µM
same,TGI,SNB-19 CNS,> 100 µM
same,TGI,SR leukemia,> 100 µM
O=Cc1cn(CCCCCCCCn2cc(C=O)c3ccccc32)c2ccccc12,TGI,NCI-H23 lung,> 10 µM
same,TGI,UACC-62 melanoma,> 10 µM
same,TGI,A549 NSCLC,> 10 µM
same,TGI,HL-60(TB) leukemia,> 10 µM
same,TGI,UO-31 renal,> 10 µM
same,TGI,NCI/ADR-RES ovarian,> 10 µM
same,TGI,COLO 205 colon,> 10 µM
same,TGI,ACHN renal,> 10 µM
same,TGI,SF-539 CNS,> 10 µM
same,TGI,KM12 colon,> 10 µM
same,TGI,SK-OV-3 ovarian,> 10 µM
same,TGI,HCC-2998 colon,> 10 µM
same,TGI,MALME-3M melanoma,> 10 µM
same,TGI,SF-295 CNS,> 10 µM
same,TGI,PC-3 prostate,> 10 µM
same,TGI,EKVX NSCLC,> 10 µM
same,TGI,IGROV1 ovarian,> 10 µM
same,TGI,RXF 393 renal,> 10 µM
same,TGI,HOP-62 NSCLC,> 10 µM
same,TGI,MDA-N,> 10 µM
same,TGI,NCI-H522 lung,> 10 µM
same,TGI,TK-10 renal,> 10 µM
same,TGI,LOX IMVI melanoma,> 10 µM
same,TGI,HT29 colon,> 10 µM
same,TGI,HS 578T breast,> 10 µM
same,TGI,CAKI-1 renal,> 10 µM
same,TGI,OVCAR-5 ovarian,> 10 µM
same,TGI,OVCAR-3 ovarian,> 10 µM
same,TGI,K-562 leukemia,> 10 µM
same,TGI,SNB-75 CNS,> 10 µM
same,TGI,SN12C renal,> 10 µM
same,TGI,MDA-MB-435,> 10 µM
same,TGI,SK-MEL-2 melanoma,> 10 µM
same,TGI,U251 CNS,> 10 µM
same,TGI,NCI-H226 lung,> 10 µM
same,TGI,HCT-116 colon,> 10 µM
same,TGI,OVCAR-4 ovarian,> 10 µM
same,TGI,MOLT-4 leukemia,> 10 µM
same,TGI,SF-268 CNS,> 10 µM
same,TGI,OVCAR-8 ovarian,> 10 µM
same,TGI,DU-145 prostate,> 10 µM
same,TGI,T-47D breast,> 10 µM
same,TGI,NCI-H460 lung,> 10 µM
same,TGI,M14 melanoma,> 10 µM
same,TGI,MDA-MB-231 breast,> 10 µM
same,TGI,A498 renal,3.23 µM
same,TGI,SW-620 colon,> 10 µM
same,TGI,MCF7 breast,> 10 µM
same,TGI,SK-MEL-28 melanoma,> 10 µM
same,TGI,CCRF-CEM leukemia,> 10 µM
same,TGI,RPMI-8226 leukemia,> 10 µM
same,TGI,HCT-15 colon,> 10 µM
same,TGI,SK-MEL-5 melanoma,> 10 µM
same,TGI,SNB-19 CNS,> 10 µM
same,TGI,SR leukemia,> 10 µM
